This note sets out measurements from patent publication US9757464B2, “Pharmaceutical compositions of dextran polymer derivatives” (Bend Research, Inc., priority 2009, dated 2017).

A short description of data set [1]: Tg of amorphous active agent by DSC. It counts as physicochemical. (In general: DSC measures the heat that a sample takes up or gives off during a temperature scan.)
Data set [2] can be described thus: Syringe dissolution test (in vitro dissolution performance). In kind it is physicochemical. The conditions noted are these: pH 7.4 buffer; for Concentration: 50 μg/mL dosed. The method, then:
This solution was adjusted to pH 7.42 by adding sufficient 0.1 N HCl. […] After adding the dispersion and the buffer to the syringe, the syringe was periodically inverted to mix the components in the syringe. The syringe was fitted with a 0.45 μm Supor PES syringe filter (manufacturer, city, state). After 5 minutes, 1 mL of fluid was pushed through the filter into a 2-mL centrifuge tube. A 0.5-mL aliquot of methanol was then added to the centrifuge tube, which was then inverted to mix the contents in the tube, followed by centrifugation at 13,000 rpm for 1 minute. The supernatant was transferred to another centrifuge tube. This procedure was repeated for all timepoints. Samples were frozen in liquid nitrogen and place on a lyophilizer for 3 days to remove all liquids.

For orientation: Cmax means the peak of the concentration-time curve.

Molecules are shown by their SMILES.

Regarding `CCC(=O)O[C@]1(C(=O)SCF)[C@H](C)C[C@H]2[C@@H]3C[C@H](F)C4=CC(=O)C=C[C@]4(C)[C@@]3(F)[C@@H](O)C[C@@]21C` [Active Agent 1, S-(fluoromethyl) 6α,9-difluoro-11β,17-dihydroxy-16α-methyl-3-oxoandrosta-1,4-diene-17β-carbothioate, 17-propionate], the “Tg of amorphous active agent” value in data set [1] came to 84 °C.

In the case of `CCC(=O)O[C@]1(C(=O)SCF)[C@H](C)C[C@H]2[C@@H]3C[C@H](F)C4=CC(=O)C=C[C@]4(C)[C@@]3(F)[C@@H](O)C[C@@]21C` [Control 1], the Concentration amounted to 0 ng/mL in data set [2] (0 min); 250 ng/mL in data set [2] (5 min); 300 ng/mL in data set [2] (15 min); 100 ng/mL in data set [2] (30 min); 240 ng/mL in data set [2] (90 min); 370 ng/mL in data set [2] (180 min). The highest concentration (Cmax) in data set [2] (syringe dissolution test) was 370 ng/mL.
